What was measured:
caspase 3 = assay: Caspase 3 activity in NIH 3T3 cells, simvastatin; format: cell-based; conditions: 24 hours hypoxia
Method: (§1) One hundred thousand NIH 3T3 cells were treated with simvastatin (1 μM, 5 μM, or 10 μM) or controls and made hypoxic for 24 hours as described elsewhere (Misra et al., J. Vasc. Interv. Radiol., 21:896-902 (2010)).
Apoptosis was assessed using an ELISA assay for caspase 3. Cellular protein was extracted from one hundred thousand cultured cells as described elsewhere (Misra et al., J. Vasc. Interv. Radiol., 21:896-902 (2010)). The enzymatic activity of caspase 3 was accessed by Caspase Glo assay (G811C, Promega, Madison, Wis.).

MMP-9 [1] = assay: RT-PCR for MMP-9 at outflow vein, simvastatin; format: in vivo, mice
Method: (§2) Animals were housed at 22° C. temperature, 41% relative humidity, and 12-/12-hour light/dark cycles. Animals were allowed access to water and food ad libitum. […] Sixty-eight male C57BL/6 mice (Jackson Laboratories, Bar Harbor, Me.) weighing 25-30 grams were used for the present study (FIG. 18). Chronic kidney disease was created by surgical removal of the right kidney accompanied by ligation of the arterial blood supply to the upper pole of the left kidney as described elsewhere (Misra et al., J. Vasc. Interv. Radiol., 21:1255-1261 (2010); see, also, FIG. 18A). Three weeks after nephrectomy, the animals were started on simvastatin (40 mg/kg administered i.p. three times per week) or PBS (equal amount of volume used for simvastatin i.p. controls). Simvastatin was prepared as described elsewhere (Wilson et al., Arterioscler Thromb. Vasc. Biol., 21:122-128 (2001)). A week later, an AVF was created by connecting the right carotid artery to the ipsilateral jugular vein (FIG. 18B; see, also, Misra et al., J. Vasc. Interv. Radiol., 21:1255-1261 (2010) and Yang et al., J. Vasc. Interv. Radiol., 20:946-950 (2009)). Animals were sacrificed at day 7, day 14, and day 28 following AVF placement for real time polymerase chain reaction (RT-PCR) and histomorphometric analyses (FIG. 18C). Serum BUN and creatinine were measured by removing blood from the tail vein at baseline (before nephrectomy), at AVF creation, and at the time of sacrifice. […] These animals were started on simvastatin (40 mg/kg i.p.) or PBS (equal amount of volume i.p.) every other day one week before AVF placement and then sacrificed four weeks after fistula placement for histomorphometric analysis.
(§3) The tissue was stored in RNA stabilizing reagent (Qiagen, Gaithersburg, Md.) as per the manufacturer's guidelines. To isolate the RNA, the specimens were homogenized, and total RNA was isolated using RNeasy mini kit (Qiagen) (Misra et al., J. Vasc. Interv. Radiol., 21:1255-1261 (2010); and Yang et al., J. Vasc. Interv. Radiol., 20:946-950 (2009)).
(§4) Expression for the gene of interest was determined using RT-PCR analysis as described elsewhere (Misra et al., J. Vasc. Interv. Radiol., 21:1255-1261 (2010)). Commercial PCR primers for the gene of interest were purchased from SA Biosciences (Frederick, Md.).

CTGF = assay: RT-PCR for CTGF at outflow vein, simvastatin; format: in vivo, mice; conditions: day 14
Method: (§5) Animals were housed at 22° C. temperature, 41% relative humidity, and 12-/12-hour light/dark cycles. Animals were allowed access to water and food ad libitum. […] Sixty-eight male C57BL/6 mice (Jackson Laboratories, Bar Harbor, Me.) weighing 25-30 grams were used for the present study (FIG. 18). Chronic kidney disease was created by surgical removal of the right kidney accompanied by ligation of the arterial blood supply to the upper pole of the left kidney as described elsewhere (Misra et al., J. Vasc. Interv. Radiol., 21:1255-1261 (2010); see, also, FIG. 18A). Three weeks after nephrectomy, the animals were started on simvastatin (40 mg/kg administered i.p. three times per week) or PBS (equal amount of volume used for simvastatin i.p. controls). Simvastatin was prepared as described elsewhere (Wilson et al., Arterioscler Thromb. Vasc. Biol., 21:122-128 (2001)). […] Serum BUN and creatinine were measured by removing blood from the tail vein at baseline (before nephrectomy), at AVF creation, and at the time of sacrifice. […]
(§6) Expression for the gene of interest was determined using RT-PCR analysis as described elsewhere (Misra et al., J. Vasc. Interv. Radiol., 21:1255-1261 (2010)). […]

VEGF-A = assay: RT-PCR for VEGF-A in kidneys, simvastatin; format: in vivo, mice
Method: as §5, §6

MMP-9 [2] = assay: RT-PCR for MMP-9 in kidneys, simvastatin; format: in vivo, mice
Method: as §2, §3, §4

MMP-2 = assay: RT-PCR for MMP-2 in kidneys, simvastatin; format: in vivo, mice
Method: as §5, §6

[3] = test system: hypoxic changes in the outflow vein; assay: Hypoxyprobe staining of outflow vein, simvastatin; format: in vivo, mice; conditions: for average reduction of hypoxyprobe staining: vs control
Method: Hypoxic changes were assessed in the outflow vein of simvastatin treated vessels or control groups using Hypoxyprobe™-1 (EMD Millipore, Billerica, Mass.), a substituted derivative of pimonidazole hydrochloride. Hypoxyprobe™-1 upon activation forms stable covalent adducts with thiol groups of polypeptides and amino acids of hypoxic tissue. Mice were injected with 60 mg/kg Hypoxyprobe™-1 i.p. Thirty minutes following injection, mice were sacrificed, and outflow veins were dissected and fixed as specified for histological analysis. Four-micrometer thick paraffin embedded sections were stained with the anti-hypoxyprobe-1 Ab as per the manufacturer's directions.

NIH 3T3 cells = assay: Proliferation (thymidine incorporation) assay in NIH 3T3 cells, simvastatin; format: cell-based
Method: as §1
One hundred thousand NIH 3T3 cells were treated with simvastatin or controls and made hypoxic for 24 hours. Next, they were seeded in a 6-well plate and cultured for 24 hours in DMEM medium. After 20 hours, […] of (^3H) thymidine was added to each well. Four hours later, the cells were washed with chilled PBS, fixed with 100% cold methanol, and collected for measurement of trichloroacetic acid-precipitable for radioactivity. Experiments were repeated three times for each time point.

α-SMA [4] = assay: α-SMA staining of outflow vein, simvastatin; format: in vivo, mice; conditions: for average reduction of α-SMA density: vs control
Method: Multiple serial four-micrometer sections were stained and analyzed. Cellular proliferation was determined by staining for Ki-67 on sections removed from the outflow vein for simvastatin treated vessels or control groups. Smooth muscle density (α-SMA) or proliferation index (Ki-67) was determined by staining on sections removed from the outflow vein by performing quantification at the different time points. Immunohistochemistry for Ki-67 and α-SMA was performed on paraffin-embedded sections from the outflow vein after transfection with either simvastatin or controls using the Vectastain Elite ABC system (Vector Laboratories, Burlingame, Calif., USA). The following antibodies were used: mouse monoclonal antibody Ki-67 (DAKO, Carpentaria, Calif.; 1:400) or rabbit polyclonal antibody to mouse for α-SMA (Abcam, Cambridge, Mass.; 1:400).
(§7) Morphometric analysis was performed as described elsewhere (Misra et al., Kidney Int., 68:2890-2900 (2005); and Misra et al., Am. J. Physiol. Heart Circ. Physiol., 294:H2219-2230 (2008)). Briefly, the outflow vein was sectioned into multiple contiguous 4-μm paraffin embedded sections. Typically, 2 to 3 sections per animal for each group (simvastatin and controls) and time point (day 14 and day 28) were photographed and then quantified using KS 400 (Carl Zeiss, Inc., Thornwood, N.Y.) semiquantitative program.

α-SMA [5] = assay: Confocal microscopy for α-SMA plus phalloidin in NIH 3T3 cells, simvastatin; format: cell-based
Method: as §1

α-SMA [6] = assay: Western blot of α-SMA in NIH 3T3 cells, simvastatin; format: cell-based; conditions: 10 μM, 24 hours of hypoxia, vs control
Method: as §1
The differentiation of fibroblasts to myofibroblasts was assessed by performing Western blot analysis for α-SMA. The cultured cells were processed for Western analysis using rabbit polyclonal antibody as described elsewhere (Misra et al., J. Vasc. Interv. Radiol., 19:252-259 (2008)).

[7] = test system: outflow vein of arteriovenous fistula; assay: Histomorphometry of outflow vein (neointima, media/adventitia, lumen area, cell density), simvastatin; format: in vivo, mice; conditions: day 14
Method: as §2
At euthanasia, all mice were anesthetized, and the arterio-venous fistula was carefully dissected from of the surrounding tissue. Animals were euthanized by use of CO2 asphyxiation, and the outflow veins harvested for RT-PCR or histomorphometric analyses as described elsewhere (Misra et al., Kidney Int., 68:2890-2900 (2005); Misra et al., J. Vasc. Interv. Radiol., 21:1255-1261 (2010); and Misra et al., Am. J. Physiol. Heart Circ. Physiol., 294:H2219-2230 (2008)).
as §7

## CCC(C)(C)C(=O)O[C@H]1C[C@@H](C)C=C2C=C[C@H](C)[C@H](CC[C@@H]3C[C@@H](O)CC(=O)O3)[C@H]21 [simvastatin]
Caspase 3; 5 μM
  average increase in caspase 3 activity: 281%
Caspase 3; 10 μM
  average increase in caspase 3 activity: 1103%
MMP-9 [1]; day 7
  average gene expression of MMP-9: 0.19±0.03
MMP-9 [1]; day 7, vs control
  Average reduction of MMP-9 gene expression: 69%
MMP-9 [1]; day 14
  average gene expression of MMP-9: 0.37±0.02
MMP-9 [1]; day 14, vs control
  Average reduction of MMP-9 gene expression: 41%
CTGF
  mean gene expression of CTGF: 0.29±0.05
CTGF; vs control
  average reduction of CTGF gene expression: 45%
VEGF-A; day 28
  average gene expression of VEGF-A: 1±0.02
VEGF-A; day 28, vs control
  Average reduction of VEGF-A gene expression: 24%
MMP-9 [2]; day 7
  average gene expression of MMP-9: 0.42±0.13
MMP-9 [2]; day 7, vs control
  Average reduction of MMP-9 gene expression: 57%
MMP-9 [2]; day 28
  average gene expression of MMP-9: 0.64±0.09
MMP-9 [2]; day 28, vs control
  Average reduction of MMP-9 gene expression: 44%
MMP-2; day 28
  expression of MMP-2: 0.78±0.09
MMP-2; day 28, vs control
  Average reduction of MMP-2 expression: 42%
[3]; day 14
  average density of hypoxyprobe staining: 18.33±2.06
  average reduction of hypoxyprobe staining: 53%
[3]; day 28
  average density of hypoxyprobe staining: 13.01±4.62
  average reduction of hypoxyprobe staining: 70%
[3]; day 28 normal, vs control (P=0.0103)
  reduction of hypoxyprobe staining: 72%
NIH 3T3 cells; 5 μM, 24 hours hypoxia
  average reduction in proliferative ability: 83%
NIH 3T3 cells; 5 μM, 24 hours normoxia
  average reduction in proliferative ability: 75%
NIH 3T3 cells; 10 μM, 24 hours hypoxia
  average reduction in proliferative ability: 92%
NIH 3T3 cells; 10 μM, 24 hours normoxia
  average reduction in proliferative ability: 94%
α-SMA [4]; day 14
  average α-SMA density: 24±1.2
  average reduction of α-SMA density: 46%
α-SMA [4]; day 28
  average α-SMA density: 8.4±1.6
  average reduction of α-SMA density: 87%
α-SMA [4]; day 28 normal
  average α-SMA density: 28.4±1.6
  average reduction of α-SMA density: 32%
α-SMA [5]; 5 μM, 24 hours of hypoxia
  average reduction in α-SMA plus phalloidin staining: 52%
α-SMA [5]; 5 μM, 24 hours of normoxia
  average reduction in α-SMA plus phalloidin staining: 62%
α-SMA [5]; 10 μM, 24 hours of hypoxia
  average reduction in α-SMA plus phalloidin staining: 82%
α-SMA [5]; 10 μM, 24 hours of normoxia
  average reduction in α-SMA plus phalloidin staining: 94%
α-SMA [6]
  Average reduction in α-SMA production (Western blot): 56%
[7]
  average area of the media/adventitia: 147603±4443 μm^2
  average area of the neointima: 61864±12401 μm^2
  average cell density of the media/adventitia: 3.27±0.33
  average cell density of the neointima: 4.6±0.2
